Data published in US20030143228A1, “Human telomerase reverse transcriptase as a class-II restricted tumor-associated antigen” (Baylor College of Medicine, priority 2001, published 2003).
Entries after “also recorded” stand apart in the source; their conditions may differ.

Columns and labels:
Assay type in all cases: cell-based, human
[1] = test system: peptide-specific CD4+ T-cell clones; experiment: Peptide titration of T-cell clones; conditions: autologous PBMCs
Description: To evaluate the avidity of hTRT916 and hTRT672 T-cell clones for their ligands, peptide titration curves were generated with autologous PBMCs. The maximal cell proliferation of the hTRT916 T-cell clone was obtained at a peptide concentration of 10 μg/ml, compared with only at a peptide concentration of 1 μg/ml for the hTRT672 T-cell clone (FIG. 7).
Yet further, the avidity of the hTRT631 T-cell clone for its ligand was also evaluated. Peptide titration curves were generated with autologous PBMCs. The half maximal cell proliferation of the hTRT631 T-cell clone was obtained at a peptide concentration of 0.1 μg/ml (FIG. 8).
The effectiveness of antitumor immunotherapy based on CD8+ and CD4+ T-cells depends on the ability of the latter to recognize naturally processed antigen presented by APC. This property depends in turn on correct processing of the epitope in the MHC class II pathway and the avidity of the epitope for its MHC/TCR-complex (Kobayashi, 2000). To determine whether the newly identified peptides were naturally processed antigens, the avidity of the specific T-cell clones for their ligands was evaluated. Peptide titration curves were generated with autologous DC as APC. For peptides hTRT631, hTRT766, hTRT787, the peptide concentrations required to obtain half of the maximal proliferation exceeded 1.0 μM (FIG. 15A-FIG. 15F).

[2] = test system: peptide-specific CD4+ T-cell clones; experiment: Specificity and MHC restriction of peptide-specific T-cell clones (antibody blocking)
Description: The T916-positive T-cell clone, T631-positive T-cell or T672-positive T-cell (2×10^4 cells/well) were re-stimulated with autologous PBMC-derived DC (1×10^3/well) (Zhou et al., 1996) pulsed with T916, T631, T672 or irrelevant 15-mer peptides derived from HER-2 (SEQ.ID.NO.78, LSTDVGSCTLVCPLH) and EBV (SEQ.ID.NO.79, AYFMVFLQTHIFAEV) at the same concentration of 20 μg/ml in the presence of anti-HLA-DR (G46.4), anti-HLA-ABC (class I, G46.2.6), anti-CD4, or anti-CD8 (20 μg/ml, BD PharMingen). 48-72 hr later, GM-CSF release and [^3H]-thymidine incorporation of the T-cells were measured.
Further, antibody blocking assays were used to test whether the T-cell responses to peptides were MHC class II-restricted. […] Flow cytometric analysis of the responses to T-cell clones (FIG. 14A-FIG. 14F) confirmed clones were CD4-positive and CD 8-negative.

HLA-DR7+/hTRT+ LCL cells = experiment: T-cell direct responses to hTRT-positive cells
Description: The T-cells (5×10^3/well) were co-cultured with the irradiated HLA-DR7+/hTRT+ LCL cells (1×10^4/well) in the presence or absence of the anti-HLA-DR antibody (20 μg/ml). IFN-γ production of the T-cells was monitored by ELISPOT assay and cell proliferation was measured by [^3H]-thymidine incorporation compared with anti-DR sample.

recombinant hTRT protein = experiment: T-cell recognition of natively processed hTRT protein presented by autologous DC
Text: A recombinant hTRT protein and an irrelevant Neu protein were produced and used to pulse PBMC-derived DC. Recombinant hTRT and Neu(extracellular domain)-Fc fusion proteins, were produced in SF9 insect cells by use of a baculovirus expression system (Gibco), purified by affinity binding to Protein A (Sigma), and tested by Western blot analysis with anti-hTRT (Santa Cruz) or anti-Neu (Oncogene) antibodies, respectively.
The T916-specific T-cells, T631-specific T-cells or T672-specific T-cells (2×10^4/well) were stimulated with irradiated autologous PBMC-derived DC (Zhou et al., 1996) (2×10^3/well) pulsed with recombinant hTRT-Fc proteins (1 μg/ml) in the presence or absence of anti-HLA-DR antibodies (20 μg/ml). The T-cell clones were also stimulated with DC pulsed with irrelevant recombinant Neu-Fc proteins (1 μg/ml). Recombinant hTRT Fc fusion proteins and Neu (extracellular domain)-Fc proteins were produced from […], purified with a Protein-A purification kit (Pierce), and confirmed by Western blot analysis with anti-hTRT (Santa Cruz) or anti-Neu (Oncogene) antibodies. 48 hr later, [^3H]-thymidine incorporation of the T-cells was then measured.
The ability of these T-cell clones to recognize naturally processed antigen in the form of recombinant hTRT protein was tested in experiments in which autologous PBMC or DC were used as APC and recombinant hTRT proteins as a source of antigen (FIG. 16).

T-cell clone = experiment: Flow cytometric analysis of T-cell clones; conditions: peptide-specific T-cell clone, anti-CD4-FITC / CD8-PE staining
Text: The T-cell clone was double-stained with anti-human CD4-FITC and CD8-PE antibodies or isotype controls (mouse IgG-FITC and IgG-PE) (BD PharMingen). The cells were then examined by flow cytometric analysis (Chen et al., 1997). More than 99% of the T-cell population were CD4-positive. Flow cytometric analysis verified that the T-cell clones were exclusively CD4-positive (FIG. 9A and FIG. 9B). Similar results were obtained from four different T916-specific T-cell clones. Taken together, the findings indicate that HLA-DR7-restricted epitopes reside in clones 8 and 35 and induce hTRT-specific human CD4+ T-cell responses.

[3] = test system: Donor's peripheral blood mononuclear cells (PBMCs); experiment: Peptide T-cell proliferation assay with donor PBMC; conditions: peptide 20 μg/ml; positive if cpm at least 2.5 times PBMC without peptide
Description: Donor's peripheral blood mononuclear cells (PBMCs) were plated in 96-well plates (Costar) at 200,000 cells/well in AIM-V media (Gibco). Peptides were added into each well at the concentration of 20 μg/ml. After a week of incubation, the culture medium was removed and cells were resuspended in AIM-V media, seeded onto test plates and re-stimulated with autologous irradiated (2,000-6,000 rads) PBMC pulsed with the same peptides used in the primary stimulation (20 μg/ml). On day 2 of the re-stimulation, [^3H]-thymidine (1 uCi/well) was added to the test plates, and its incorporation by T-cells was measured on day 3. […] T-cell clones were established from positive T-cell lines by limiting dilution.
Because Th cells generally prefer to recognize peptides of about 15 residues in length, ten predicted peptides corresponding to promiscuous binding motifs of 15 mer or longer were synthesized and purified (Table 2). Human T-cell responses to these peptides were assessed by isolating PBMC from HLA-typed healthy donors with HLA-DR1, DR3, DR15, or other alleles and seeding them into 96-well plates that were subsequently stimulated with each peptide. After a week of stimulation, the cultures were tested for their capacity to respond to the peptides presented by autologous PBMC.

[4] = test system: T-cells primed by the pool 5-transduced DC; experiment: DC-based immunogenetic screening of tumor retrogen library, [3H]-thymidine incorporation; conditions: T-cells 2×10^5, DC 2×10^4
Description: cDNA from the mRNA of prostate tumor cells (DU145) were generated by cDNA synthesis kits (CLONTECH). cDNA with sizes of 400 bp or higher were digested with Sau3A I (Bio-Lab) after fractionation with SizeSep™ 400 columns (Amersham Pharmacia Biotech) and inserted into the BamH I-cut pSBFc-DS. Ligated DNA was then transformed into E. coli, and library quality was confirmed by examining dozens of individual clones with different insert sizes and DNA sequences. Individual colonies were then cultured individually and pooled for the isolation of plasmid DNA. Recombinant retroviral retrogen vectors (pools) were generated by transfection of the plasmid DNA pools into packaging cells with GeneJammer (Stratagene). Two or three days later, the culture medium containing the retroviral vectors was harvested, filtered, and then used for DC transduction or stored at −80° C.
DC-based immunogenetic screening approach was used to identify unknown class II-restricted TAA from a tumor retrogen library.
After several rounds of screening of 12,000 individual clones in the library, two sub-pools (5-VI-C and -D) containing genes capable of stimulating CD4+ T-cells were identified. The 40 individual clones in the sub-pools 5-VI-C and -D were individually transduced into autologous CD34+-derived DC. […]

In the case of GTAFVQMPAHGLFPW [Peptide T916], the “peptide concentration at maximal cell proliferation of the T-cell clone” value [1] is reported as 10 µg/mL, the “response of T-cells to autologous PBMC pulsed with peptide” value [2] is reported as “dosage-dependent manner” and the “response of the peptide-specific T-cells to irrelevant peptides” value ([2]; irrelevant 15-mer peptides (HER-2, EBV/EBNA1) or non-corresponding hTRT peptides, 20 μg/ml) is reported as “did not respond”. The “restriction of T-cell response (antibody blocking)” value ([2]; peptide-pulsed autologous APC with anti-HLA-DR, anti-HLA class I, anti-HLA-DQ, anti-CD4 or anti-CD8 antibodies) was “both CD4- and HLA-DR-restricted; also recorded: MHC-II restricted epitopes”, the “response of peptide-specific CD4+ T-cells to hTRT+/DR7+ LCL” value (HLA-DR7+/hTRT+ LCL cells; IFN-γ ELISPOT and [3H]-thymidine incorporation) was “active proliferation and production of INF-γ” and the “effect of anti-HLA-DR antibody on T-cell response to hTRT+/DR7+ LCL” value (HLA-DR7+/hTRT+ LCL cells; antibody 20 μg/ml) was “drastically inhibited”. The “response of peptide-specific CD4+ T-cells to hTRT+ LCL (DR3+)” value (HLA-DR7+/hTRT+ LCL cells; different class II genotype) was “did not respond”, the “epitope classification (naturally processed or cryptic)” value (recombinant hTRT protein) was “are processed” and the “response of peptide-specific T-cells to irrelevant Neu protein presented by autologous DC” value (recombinant hTRT protein; Neu-Fc 1 μg/ml) was “did not respond”. The “recognition of hTRT protein after processing and presentation by autologous APC” value (recombinant hTRT protein; peptide-specific T-cell clone, DC or PBMC pulsed with recombinant hTRT protein) was “recognize the hTRT proteins”, the “T-cell population CD4-positive” value (T-cell clone) was “More than 99%” and the “proliferative T-cell responses from the donors' T-cells” value [3] was “elicited proliferative T-cell responses”.

B1: clone 8: positive clone of the DU145 tumor retrogen library; ORF encodes a 291 aa hTRT polypeptide (SEQ.ID.NO.3) (nucleic acid)
DNA: ATCCTGGCCAAGTTCCTGCACTGGCTGATGAGTGTGTACGTCGTCGAGCTGCTCAGGTCTTTCTTTTATGTCACGGAGACCACGTTTCAAAAGAACAGGCTCTTTTTCTACCGGAAGAGTGTCTGGAGCAAGTTGCAAAGCATTGGAATCAGACAGCACTTGAAGAGGGTGCAGCTGCGGGAGCTGTCGGAAGCAGAGGTCAGGCAGCATCGGGAAGCCAGGCCCGCCCTGCTGACGTCCAGACTCCGCTTCATCCCCAAGCCTGACGGGCTGCGGCCGATTGTGAACATGGACTACGTCGTGGGAGCCAGAACGTTCCGCAGAGAAAAGAGGGCCGAGCGTCTCACCTCGAGGGTGAAGGCACTGTTCAGCGTGCTCAACTACGAGCGGGCGCGGCGCCCCGGCCTCCTGGGCGCCTCTGTGCTGGGCCTGGACGATATCCACAGGGCCTGGCGCACCTTCGTGCTGCGTGTGCGGGCCCAGGACCCGCCGCCTGAGCTGTACTTTGTCAAGGTGGATGTGACGGGCGCGTACGACACCATCCCCCAGGACAGGCTCACGGAGGTCATCGCCAGCATCATCAAACCCCAGAACACGTACTGCGTGCGTCGGTATGCCGTGGTCCAGAAGGCCGCCCATGGGCACGTCCGCAAGGCCTTCAAGAGCCACGTCTCTACCTTGACAGACCTCCAGCCGTACATGCGACAGTTCGTGGCTCACCTGCAGGAGACCAGCCCGCTGAGGGATGCCGTCGTCATCGAGCAGAGCTCCTCCCTGAATGAGGCCAGCAGTGGCCTCTTCGACGTCTTCCTACGCTTCATGTGCCACCACGCCGTGCGCATCAGGGGCAAGTCCTACGTCCAGTGCCAGGGG
modifications: Human
For B1, the “T-cell response to autologous DC transduced with individual clones” value [4] was “strong T-cell response”.

B2: clone 35: positive clone of the DU145 tumor retrogen library; ORF encodes a 171 aa hTRT polypeptide (SEQ.ID.NO.4) (nucleic acid)
DNA: ATCCCGCAGGGCTCCATCCTCTCCACGCTGCTCTGCAGCCTGTGCTACGGCGACATGGAGAACAAGCTGTTTGCGGGGATTCGGCGGGACGGGCTGCTCCTGCGTTTGGTGGATGATTTCTTGTTGGTGACACCTCACCTCACCCACGCGAAAACCTTCCTCAGGACCCTGGTCCGAGGTGTCCCTGAGTATGGCTGCGTGGTGAACTTGCGGAAGACAGTGGTGAACTTCCCTGTAGAAGACGAGGCCCTGGGTGGCACGGCTTTTGTTCAGATGCCGGCCCACGGCCTATTCCCCTGGTGCGGCCTGCTGCTGGATACCCGGACCCTGGAGGTGCAGAGCGACTACTCCAGCTATGCCCGGACCTCCATCAGAGCCAGTCTCACCTTCAACCGCGGCTTCAAGGCTGGGAGGAACATGCGTCGCAAACTCTTTGGGGTCTTGCGGCTGAAGTGTCACAGCCTGTTTCTGGATTTGCAGGTGAACAGCCTCCAGACGGTGTGCACCAACATCTACAAG
modifications: Human
With B2 the “T-cell response to autologous DC transduced with individual clones” value [4] was “strong T-cell response”.
